Results as given in US20250283049A1, “AGENT FOR CULTURING ORGANOID IN ABSENCE OF EXTRACELLULAR MATRIX” (KEIO UNIVERSITY, priority 2022, published 2025).

What was measured:
Type in all cases: cell-based
[1] = tested on: human small intestine-derived organoid; experiment: Culture of organoids in absence of Matrigel with LATS kinase inhibitor; cell number by ATP (CellTiter-Glo 3D)
Description: In this experimental example, a human small intestine-derived organoid and human large intestine-derived organoid established in the presence of Matrigel (registered trademark) were cultured in the absence of Matrigel (registered trademark) and in the presence of a LATS kinase inhibitor (final concentration: 10 μM), and their dynamics were observed. The procedure was the same as in Experimental Example 1, except that each organoid was cultured in the absence of Matrigel (registered trademark).
The upper left panel of FIG. 3 is a photograph of a control (Ctrl) human small intestine-derived organoid cultured in the absence of Lats-IN, and the upper center panel of FIG. 3 is a photograph of a human small intestine-derived organoid cultured in the presence of Lats-IN. The scale bar is 100 μm. […] The vertical axis of the graph represents luminescence intensity (relative value) indicating the amount of ATP present. […]
FIG. 8 presents graphs showing the results of measuring the proliferation of the human small intestine-derived and human large intestine-derived organoids in the absence of Lats-IN (Ctrl), in the presence of Lats-IN (Lats-IN), in the presence of Lats-IN and MYF01-37 (Lats-IN+MYF), and in the presence of MYF01-37 (MYF). The cell proliferation was measured by measuring ATP using a commercially available kit (product name “CellTiter-Glo 3D,” Promega Corporation). The vertical axis of the graph represents luminescence intensity (relative value) indicating the amount of ATP present. […]
FIG. 26 presents graphs showing the results of measuring cell number in each organoid after 6 days of culture by measuring ATP using a commercially available kit (product name “CellTiter-Glo 3D,” Promega Corporation). The vertical axis of the graph represents luminescence intensity (relative value) indicating the amount of ATP present.

[2] = tested on: human small intestine-derived organoids dissociated into single cells; experiment: Organoid formation from single cells
Excerpt: Therefore, to examine whether signals from cell-to-cell interactions are involved in cell proliferation mediated by transcriptional regulation of YAP-TEAD by LATS inhibition, human small intestine-derived organoids were dissociated into single cells and then observed organoid formation from the single cells.
FIG. 9 presents representative photographs showing the results of organoid formation from single cells in the presence or absence of Matrigel (registered trademark) and in the absence or presence of Lats-IN (final concentration: 10 μM). In FIG. 9, the arrowheads indicate cells or organoids. In addition, D1, D4, and D7 indicate the first, fourth, and seventh days, respectively, after the start of culture. […] In addition, the percentage (%) of cells that formed organoids among the seeded single cells is also shown.

AXIN2 gene = AXIN2 gene expression by quantitative real-time PCR in human large intestine-derived organoids; conditions: absence of Matrigel; Lats-IN 10 μM
Description: Human small intestine-derived organoids and human large intestine-derived organoids were cultured in the absence or presence of Matrigel (registered trademark) and in the absence or presence of Lats-IN (final concentration: 10 μM), and the expression level of the AXIN2 gene, whose expression is regulated by Wnt, was examined by quantitative real-time PCR.
FIG. 16 presents graphs showing the results of quantitative real-time PCR.

[3] = tested on: human liver cell organoids; experiment: Culturing liver cell organoids in absence of Matrigel; number of viable cells (CellTiter-Glo 3D); conditions: concentration not given
Description: Human liver cell organoids, established from primary human liver cells, were supplemented with TrypLE Express (Thermo Fisher Scientific) and incubated at 37° C. for 5 minutes to dissociate them into single cells.
The cells were then collected and suspended in proliferation medium separately supplemented with 2, 5, 10, 20, or 50 μM TDI-011536 (CAS No. 2687970-96-1), and […] seeded into an ultra-low attachment 96-well plate at 2,000 cells/well. The preferred seeding density is 2,000 to 4,000 cells/well. In addition, cells in proliferation medium supplemented with no TDI-011536 were prepared as a control.
The proliferation medium was a medium consisting of a basal medium (Advanced DMEM/F-12 medium, 10 mM HEPES, 2 mM GlutaMAX, 100 U penicillin, 100 μg/mL streptomycin) supplemented with 10% afamin-Wnt-3A conditioned medium, 2% R-spondin 1 conditioned medium, 2% Noggin conditioned medium, and 20 ng/ml Oncostatin M.
On day 6 after seeding, the number of viable cells in the human liver cell organoids was measured using a commercially available kit (product name “CellTiter-Glo 3D,” Promega Corporation).

[4] = tested on: crypts collected from the human colon; experiment: Organoid establishment from human colon crypts dissociated into single cells; cell number by ATP; conditions: absence of Matrigel, presence of TRULI; compared with presence of Matrigel
Description: Crypts were collected from the human colon and dissociated into single cells, then cultured in the presence of Matrigel (registered trademark) or in the absence of Matrigel (registered trademark) and in the presence of TRULI to establish organoids. In addition, the cell number in each organoid under the given conditions was measured by measuring ATP using a commercially available kit (product name “CellTiter-Glo 3D,” Promega Corporation).
The upper panel of FIG. 30 is a schematic view explaining an overview of this experimental example. The lower panel of FIG. 30 is a graph showing the results of measuring the proliferation of the organoids.

O=C(N=c1sccn1Cc1ccccc1)c1c[nH]c2ncccc12 [Lats-IN]
cell proliferation (ATP luminescence) ([1]; Experimental Example 5, Lats-IN 10 μM alone): activated | cell proliferation (cell number, ATP luminescence) ([1]; final concentration 10 μM, 7 days of culture, vs control): significantly activated | organoid formation from single cells ([2]; absence of Matrigel, presence of Lats-IN 10 μM, up to day 7): proliferated from single cells and formed organoids | percentage of cells that formed organoids ([2]; presence of Matrigel and Lats-IN compared with absence of Matrigel and presence of Lats-IN): higher | expression level of AXIN2 (AXIN2 gene): increased to a level equivalent to that in the presence of Matrigel | increase in number of viable cells [3]: about three-fold | cell proliferation (ATP) during organoid establishment [4]: comparable to that observed in the presence of Matrigel
